Results on 35 molecules are retold here after patent publication US7211572B2 (Japan Tobacco Inc., priority 2003, dated 2007).

Molecules are shown by their SMILES. pIC50: −log10 of the molar value. Counter-ions that a name gives are not always drawn.

The target in this experiment is T1, HIV integrase (Human immunodeficiency virus type 1 group M subtype B, UniProt P12497, F1332H).
T1 construct: HIV integrase full length gene; made in house; host or cells: Escherichia coli BL21(DE3), plasmid pET21a-INH
Put plainly: Determination of enzyme (HIV integrase) inhibitory activity. The settings on record: recombinant HIV integrase (F185H), strand transfer ELISA, absorbance at 450 nm. The format is biochemical. Put shortly:
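Full-length integrase with F185H, expressed in E. coli and purified, was reacted for 60 min at 37 °C with compound and biotinylated donor DNA bound to streptavidin plates. Target DNA was added for 10 min, then anti-digoxigenin-peroxidase detection at A450; IC50 from % inhibition versus enzyme-free blank.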
A general note: In an ELISA, binding on a coated surface is turned into a signal by an enzyme label.

Regarding `CN(C)C(=O)c1cn2ccn(Cc3cccc(Cl)c3)c(=O)c2c(O)c1=O` [Example 153, N,N-dimethyl-2-(3-chlorobenzyl)-9-hydroxy-1,8-dioxo-1,8-dihydro-2H-pyrido[1,2-a]pyrazine-7-carboxamide], the pIC50 is 7.00 to 8.00. As to `CC(C)NC(=O)c1cn2ccn(Cc3cccc(Cl)c3)c(=O)c2c(O)c1=O` [Example 154, 2-(3-chlorobenzyl)-9-hydroxy-1,8-dioxo-1,8-dihydro-2H-pyrido[1,2-a]pyrazine-7-carboxylic acid isopropylamide], the pIC50 is 7.00 to 8.00. Then `CNC(=O)c1cn2ccn(Cc3cccc(Cl)c3)c(=O)c2c(O)c1=O` [Example 155, N-methyl-2-(3-chlorobenzyl)-9-hydroxy-1,8-dioxo-1,8-dihydro-2H-pyrido[1,2-a]pyrazine-7-carboxamide], with > 8.00; and `CCN(CC)C(=O)c1cn2ccn(Cc3cccc(Cl)c3)c(=O)c2c(O)c1=O` [Example 156, N,N-diethyl-2-(3-chlorobenzyl)-9-hydroxy-1,8-dioxo-1,8-dihydro-2H-pyrido[1,2-a]pyrazine-7-carboxamide], with 7.00 to 8.00; and `O=c1ccn2ccn(Cc3ccc(Br)cc3)c(=O)c2c1O` [Example 157, 2-(4-bromobenzyl)-9-hydroxy-2H-pyrido[1,2-a]pyrazine-1,8-dione hydrochloride], with 7.00 to 8.00. Then `O=c1ccn2ccn(Cc3cccc(Br)c3)c(=O)c2c1O` [Example 158, 2-(3-bromobenzyl)-9-hydroxy-2H-pyrido[1,2-a]pyrazine-1,8-dione hydrochloride], with 7.00 to 8.00; and `CC(C)(C)COC(=O)c1cn2ccn(Cc3cccc(Cl)c3)c(=O)c2c(O)c1=O` [Example 159, 2,2-dimethylpropyl 2-(3-chlorobenzyl)-9-hydroxy-1,8-dioxo-1,8-dihydro-2H-pyrido[1,2-a]pyrazine-7-carboxylate], with 7.00 to 8.00. Then `O=C(OC1CCCCC1)c1cn2ccn(Cc3cccc(Cl)c3)c(=O)c2c(O)c1=O` [Example 160, cyclohexyl 2-(3-chlorobenzyl)-9-hydroxy-1,8-dioxo-1,8-dihydro-2H-pyrido[1,2-a]pyrazine-7-carboxylate], with 7.00 to 8.00; and `Nc1cn2ccn(Cc3cccc(Cl)c3)c(=O)c2c(O)c1=O` [Example 161, 7-amino-2-(3-chlorobenzyl)-9-hydroxy-2H-pyrido[1,2-a]pyrazine-1,8-dione hydrochloride], with 7.00 to 8.00; and `Cc1nn(Cc2cccc(Cl)c2)c(=O)c2c(O)c(=O)ccn12` [Example 162, 2-(3-chlorobenzyl)-9-hydroxy-4-methyl-2H-pyrido[1,2-d][1,2,4]triazine-1,8-dione hydrochloride], with 7.00 to 8.00.

In the case of `O=c1c(-c2nccs2)cn2ccn(Cc3cccc(Cl)c3)c(=O)c2c1O` [Example 163, 2-(3-chlorobenzyl)-9-hydroxy-7-(thiazol-2-yl)-2H-pyrido[1,2-a]pyrazine-1,8-dione hydrochloride], the pIC50 is > 8.00.

For the molecule `O=c1c(-c2nnc[nH]2)cn2ccn(Cc3cccc(Cl)c3)c(=O)c2c1O` [Example 164, 2-(3-chlorobenzyl)-9-hydroxy-7-(4H-1,2,4-triazol-3-yl)-2H-pyrido[1,2-a]pyrazine-1,8-dione hydrochloride], the pIC50 is 7.00 to 8.00. As for `CC(=O)Nc1cn2ccn(Cc3cccc(Cl)c3)c(=O)c2c(O)c1=O` [Example 165, N-[2-(3-chlorobenzyl)-9-hydroxy-1,8-dioxo-1,8-dihydro-2H-pyrido[1,2-a]pyrazin-7-yl]acetamide], the pIC50 was 7.00 to 8.00. Then `COc1cc(Cl)ccc1Cn1ccn2ccc(=O)c(O)c2c1=O` [Example 166, 2-(4-chloro-2-methoxybenzyl)-9-hydroxy-2H-pyrido[1,2-a]pyrazine-1,8-dione hydrochloride], with 7.00 to 8.00; and `NC(=O)c1cn2ccn(Cc3cccc(Cl)c3)c(=O)c2c(O)c1=O` [Example 167, 2-(3-chlorobenzyl)-9-hydroxy-1,8-dioxo-1,8-dihydro-2H-pyrido[1,2-a]pyrazine-7-carboxamide], with 7.00 to 8.00; and `COc1c(Cl)cccc1Cn1ccn2ccc(=O)c(O)c2c1=O` [Example 168, 2-(3-chloro-2-methoxybenzyl)-9-hydroxy-2H-pyrido[1,2-a]pyrazine-1,8-dione hydrochloride], with 7.00 to 8.00.

`O=c1ccn2ccn(CCOc3ccccc3Cl)c(=O)c2c1O` [Example 169, 2-[2-(2-chlorophenoxy)ethyl]-9-hydroxy-2H-pyrido[1,2-a]pyrazine-1,8-dione hydrochloride]: the pIC50 was 6.00 to 7.00. In the case of `O=c1c(-c2ncccn2)cn2ccn(Cc3cccc(Cl)c3)c(=O)c2c1O` [Example 170, 2-(3-chlorobenzyl)-9-hydroxy-7-(pyrimidin-2-yl)-2H-pyrido[1,2-a]pyrazine-1,8-dione hydrochloride] it was 7.00 to 8.00.

As for `CCCNC(=O)c1cn2ccn(Cc3cccc(Cl)c3)c(=O)c2c(O)c1=O` [Example 171, N-propyl-2-(3-chlorobenzyl)-9-hydroxy-1,8-dioxo-1,8-dihydro-2H-pyrido[1,2-a]pyrazine-7-carboxamide], the pIC50 was > 8.00. Take `CCCCNC(=O)c1cn2ccn(Cc3cccc(Cl)c3)c(=O)c2c(O)c1=O` [Example 172, N-butyl-2-(3-chlorobenzyl)-9-hydroxy-1,8-dioxo-1,8-dihydro-2H-pyrido[1,2-a]pyrazine-7-carboxamide]: the pIC50 is > 8.00.

With `CC(C)CNC(=O)c1cn2ccn(Cc3cccc(Cl)c3)c(=O)c2c(O)c1=O` [Example 173, N-isobutyl-2-(3-chlorobenzyl)-9-hydroxy-1,8-dioxo-1,8-dihydro-2H-pyrido[1,2-a]pyrazine-7-carboxamide], the pIC50 is 7.00 to 8.00. Take `COC(=O)CNC(=O)c1cn2ccn(Cc3cccc(Cl)c3)c(=O)c2c(O)c1=O` [Example 174, methyl{[2-(3-chlorobenzyl)-9-hydroxy-1,8-dioxo-1,8-dihydro-2H-pyrido[1,2-a]pyrazine-7-carbonyl]amino}acetate]: the pIC50 was 7.00 to 8.00.

On to `CCNC(=O)c1cn2ccn(Cc3cccc(Cl)c3)c(=O)c2c(O)c1=O` [Example 175, N-ethyl-2-(3-chlorobenzyl)-9-hydroxy-1,8-dioxo-1,8-dihydro-2H-pyrido[1,2-a]pyrazine-7-carboxamide], for which the pIC50 is > 8.00. `COCCNC(=O)c1cn2ccn(Cc3cccc(Cl)c3)c(=O)c2c(O)c1=O` [Example 176, N-(2-methoxyethyl)-2-(3-chlorobenzyl)-9-hydroxy-1,8-dioxo-1,8-dihydro-2H-pyrido[1,2-a]pyrazine-7-carboxamide]: the pIC50 was 7.00 to 8.00. Then `O=C(NCCOC(=O)C(F)(F)F)c1cn2ccn(Cc3cccc(Cl)c3)c(=O)c2c(O)c1=O` [Example 177, 2-{[2-(3-chlorobenzyl)-9-hydroxy-1,8-dioxo-1,8-dihydro-2H-pyrido[1,2-a]pyrazine-7-carbonyl]amino}ethyl trifluoroacetate], with 7.00 to 8.00. In the case of `O=C(NCCO)c1cn2ccn(Cc3cccc(Cl)c3)c(=O)c2c(O)c1=O` [Example 178, N-(2-hydroxyethyl)-2-(3-chlorobenzyl)-9-hydroxy-1,8-dioxo-1,8-dihydro-2H-pyrido[1,2-a]pyrazine-7-carboxamide] it was 7.00 to 8.00; in that of `O=c1ccn2ccn(Cc3cccc(Cl)c3O)c(=O)c2c1O` [Example 179, 2-(3-chloro-2-hydroxybenzyl)-9-hydroxy-2H-pyrido[1,2-a]pyrazine-1,8-dione hydrochloride], 7.00 to 8.00; in that of `O=C(NCc1ccccc1)c1cn2ccn(Cc3cccc(Cl)c3)c(=O)c2c(O)c1=O` [Example 180, N-benzyl-2-(3-chlorobenzyl)-9-hydroxy-1,8-dioxo-1,8-dihydro-2H-pyrido[1,2-a]pyrazine-7-carboxamide], > 8.00.

Consider `O=C(NCC(F)(F)F)c1cn2ccn(Cc3cccc(Cl)c3)c(=O)c2c(O)c1=O` [Example 181, N-(2,2,2-trifluoroethyl)-2-(3-chlorobenzyl)-9-hydroxy-1,8-dioxo-1,8-dihydro-2H-pyrido[1,2-a]pyrazine-7-carboxamide], for which the pIC50 was 7.00 to 8.00. Take `CCCCN(C)C(=O)c1cn2ccn(Cc3cccc(Cl)c3)c(=O)c2c(O)c1=O` [Example 182, N-butyl-N-methyl-2-(3-chlorobenzyl)-9-hydroxy-1,8-dioxo-1,8-dihydro-2H-pyrido[1,2-a]pyrazine-7-carboxamide]: the negative-log IC50 (pIC50) is 7.00 to 8.00. In the case of `COCCN(C)C(=O)c1cn2ccn(Cc3cccc(Cl)c3)c(=O)c2c(O)c1=O` [Example 183, N-(2-methoxyethyl)-N-methyl-2-(3-chlorobenzyl)-9-hydroxy-1,8-dioxo-1,8-dihydro-2H-pyrido[1,2-a]pyrazine-7-carboxamide] it was 7.00 to 8.00. Then `O=C(c1cn2ccn(Cc3cccc(Cl)c3)c(=O)c2c(O)c1=O)N1CCCC1` [Example 184, 2-(3-chlorobenzyl)-9-hydroxy-7-(pyrrolidine-1-carbonyl)-2H-pyrido[1,2-a]pyrazine-1,8-dione], with 7.00 to 8.00; and `O=C(c1cn2ccn(Cc3cccc(Cl)c3)c(=O)c2c(O)c1=O)N1CCOCC1` [Example 185, 2-(3-chlorobenzyl)-9-hydroxy-7-(morpholine-4-carbonyl)-2H-pyrido[1,2-a]pyrazine-1,8-dione], with 7.00 to 8.00; and `COc1cc(Cn2ccn3ccc(=O)c(O)c3c2=O)ccc1Cl` [Example 186, 2-(4-chloro-3-methoxybenzyl)-9-hydroxy-2H-pyrido[1,2-a]pyrazine-1,8-dione hydrochloride], with 7.00 to 8.00.

Turning to `COC(=O)Cc1cn2ccn(Cc3cccc(Cl)c3)c(=O)c2c(O)c1=O` [Example 187, methyl [2-(3-chlorobenzyl)-9-hydroxy-1,8-dioxo-1,8-dihydro-2H-pyrido[1,2-a]pyrazin-7-yl]acetate], the negative-log IC50 (pIC50) is 7.00 to 8.00.

Usually pIC50 stands for the IC50 on a negative log10 scale, so that one unit is a factor of ten.
